Data from patent US20250064890A1, “PROTEIN COMPOSITIONS FOR THE TREATMENT OF INFLAMMATORY DISEASES” (Unichem Laboratories Limited, priority 2021, published 2025).

Columns and labels:
[1] = tested on: oral (buccal) mucosa cells (TR146); experiment: Cytoprotective effect against 5-FU induced damage (MTT); assay type: cell-based, human
Protocol: The cell viability was assessed by (MTT) assay and compared with positive control (Cells treated with Amifostine, EGCG and EGF and negative assay (untreated cells), wherein the control was the cells that underwent chemotherapy/radiotherapy.
The protective effect of the recombinant lectin on survival of TR146 cells against 5-FU induced damage was determined using following calculations:
The viability of cells was determined as: % Cell viability=(100−% Cytotoxicity); • where, the percentage cytotoxicity corresponding to each treatment was calculated as: % Cytotoxicity=[(R−X)/R]*100, wherein X=Absorbance of cells treated with 5-FU or radiation damage/TI+5-FU, R=Absorbance of Control cells (Untreated) and Percentage protection was calculated as:
{(Absorbance of TI+5-FU or radiation)−(Absorbance of 5-FU or radiation alone)/(Absorbance of Untreated)−(Absorbance of 5-FU alone)}*100

[2] = Body weight change in 5-FU induced OM hamsters; assay type: in vivo, golden Syrian hamsters; details: G3, 0.1 mg/Animal in buccal cheek pouch, Day 4 to Day 12, with respect to Day 4
Protocol: In-vivo experiments conducted in healthy golden Syrian hamsters wherein animals were grouped as below:
(§1) To induce OM, animals were administered (except normal control) 5-Fluorouracil (5-FU) by intraperitoneal route at doses of 60 mg/kg & 40 mg/kg respectively on first two days. On Day 4, under anesthesia, with aim of enhancing OM, mechanical irritation of the oral mucosa were done using wire brush. Treatment was initiated from Day 4 to Day 12. For group 3 animals 100 μl of vehicle comprising of standard drug Dexamethasone at 0.1 mg was instilled in buccal cheek pouch. For group 4, 5 and 6 animals 100 μl of vehicle comprising of SEQ ID NO. 2 at 0.25 mg, 0.5 mg & 1 mg, respectively was instilled in buccal cheek pouch. At the end of treatment period, cheek pouch of the hamsters was exposed, Mucositis scoring was carried out and images were captured. The animals were then humanely sacrificed, cheek pouch/jugular mucosa were isolated and used for biomarker estimation and histopathological investigation by using ELISA method and Hematoxylin and Eosin (H&E) staining, respectively.
Body weight of each animal was recorded daily till the end of experiment. Percentage change in body weight of the animals was calculated by using formula with respect to Day 4.

[3] = tested on: 5-Fluorouracil induced OM; experiment: Mucositis severity score, 5-FU induced OM in hamsters; assay type: in vivo, golden Syrian hamsters; details: G3, 0.1 mg/Animal, after 12 days; scale 0-5
Protocol: as §1
Mucositis severity was scored as given below: • Cheek pouch completely healthy—0; Mild erythema—1; • Severe erythema and superficial erosion—2; Formation of ulcers in one or more places—3; Cumulative ulcer formation about 50% of cheek pouch surface area—4; Complete ulceration of the cheek pouch mucosa—5.

TNF-α = TNF-α in jugular mucosa (ELISA), 5-FU induced OM in hamsters; assay type: in vivo, golden Syrian hamsters; details: G3, 0.1 mg/Animal
Protocol: as §1
(§2) Further, for biomarker estimation jugular mucosa was dissected out, tissue weighed and stored in ice cold 1×PBS. 100 mg of tissue was taken and in 1 ml of 1×PBS buffer. Supernatant of homogenate was used for analysis of TNF-α and Interleukin-1β using ELISA method as per manufacturers instruction. The levels of TNF-α and Interleukin-1β are given in Table 13, FIG. 2 and Table 14, FIG. 3, respectively.

Interleukin-1β = Interleukin-1β in jugular mucosa (ELISA), 5-FU induced OM in hamsters; assay type: in vivo, golden Syrian hamsters; details: G3, 0.1 mg/Animal
Protocol: as §1, §2

[4] = tested on: 5-Fluorouracil induced OM; experiment: Histopathology score of cheek pouch, 5-FU induced OM in hamsters; assay type: in vivo, golden Syrian hamsters; details: G3, 0.1 mg/Animal; scale 1-5
Protocol: as §1
For histopathology the oral mucosa tissues were sectioned 5 μm thickness and stained with hematoxylin-eosin staining. For study histopathological the sections were analyzed by light microscopy.
The pouch/jugular mucosa were observed and scored for infiltration of inflammatory cells, vasodilatation, presence of hemorrhagic areas, edema, ulcerations, and abscesses.

Row | SMILES | % Protection ([1]; 0.01 μM + 5-FU (5 mM)) [%] | % cytotoxicity ([1]; 0.01 μM + 5-FU (5 mM)) [%] | % viability ([1]; 0.01 μM + 5-FU (5 mM)) [%] | % Protection ([1]; 0.1 μM + 5-FU (5 mM)) [%] | % cytotoxicity ([1]; 0.1 μM + 5-FU (5 mM)) [%] | % viability ([1]; 0.1 μM + 5-FU (5 mM)) [%] | % Protection ([1]; 1 μM + 5-FU (5 mM)) [%] | % cytotoxicity ([1]; 1 μM + 5-FU (5 mM)) [%] | % viability ([1]; 1 μM + 5-FU (5 mM)) [%] | % Protection ([1]; 10 μM + 5-FU (5 mM)) [%] | % cytotoxicity ([1]; 10 μM + 5-FU (5 mM)) [%] | % viability ([1]; 10 μM + 5-FU (5 mM)) [%] | decrease of body weight [2] [%] | Mucositis score [3] | TNF-α levels, Mean (TNF-α) [pg/mL] | TNF-α levels, % Decrease vs G2 (TNF-α; G2 = OM + Vehicle) [%] | IL-1β levels, Mean (Interleukin-1β) | IL-1β levels, % Decrease vs G2 (Interleukin-1β; G2 = OM + Vehicle) [%] | Histopathology score, Mean [4]
1 | O=C(O[C@@H]1Cc2c(O)cc(O)cc2O[C@@H]1c1cc(O)c(O)c(O)c1)c1cc(O)c(O)c(O)c1 [EGCG, Epigallocatechin gallate] | 19.5 | 47 | 53 | 42.4 | 33.6 | 66.4 | 47.9 | 30.4 | 69.6 | 24.2 | 44.2 | 55.8 | – | – | – | – | – | – | –
2 | C[C@@H]1C[C@H]2[C@@H]3CCC4=CC(=O)C=C[C@]4(C)[C@@]3(F)[C@@H](O)C[C@]2(C)[C@@]1(O)C(=O)CO [Dexamethasone, reference compound] | – | – | – | – | – | – | – | – | – | – | – | – | 6.59 | 2.00±0.3 | 134.29 | −8.29 | 163.96 | 5.59 | 1.6
